This passage reports EC50 results from US11541028B2, “Peptide pharmaceuticals for treatment of NASH and other disorders” (Mederis Diabetes LLC, priority 2018, dated 2023).

The target of one test is T1, human GLP-1 receptor (Homo sapiens, UniProt P43220).
T1 construct: host or cells: CHO cells
As to the kind of experiment: DiscoveRx LeadHunter cellular assay, cAMP stimulation, GLP-1 receptor in CHO cells. The settings on record: human GLP-1 receptor in CHO cells (DiscoveRx); read-out: EC50 cAMP GLP-1 R. Type of test: cell-based.

The target in the next test is T2, human glucagon receptor (Homo sapiens, UniProt P47871).
T2 construct: host or cells: CHO cells
The experiment in a line: DiscoveRx LeadHunter cellular assay, cAMP stimulation, glucagon receptor in CHO cells. Type of test: cell-based.

Structures are written as SMILES. pEC50: −log10 of the molar value. Bridge positions count the residues as written; N and C are the ends. Square brackets hold non-standard residues; d marks the D form. Peptide text beside a SMILES is read from it. * marks the point of attachment. Melibiouronoyl(1β-O-dodecyl) = CCCCCCCCCCCCO[C@@H]1O[C@H](CO[C@H]2O[C@H](C(=O)*)[C@H](O)[C@H](O)[C@H]2O)[C@@H](O)[C@H](O)[C@H]1O; X2 = CCCCCCCCCCCCCCO[C@@H]1O[C@H](CO[C@H]2O[C@H](C(=O)*)[C@H](O)[C@H](O)[C@H]2O)[C@@H](O)[C@H](O)[C@H]1O; Aib = CC(C)(N)C(=O)O

T1 sequence (P43220 24-463): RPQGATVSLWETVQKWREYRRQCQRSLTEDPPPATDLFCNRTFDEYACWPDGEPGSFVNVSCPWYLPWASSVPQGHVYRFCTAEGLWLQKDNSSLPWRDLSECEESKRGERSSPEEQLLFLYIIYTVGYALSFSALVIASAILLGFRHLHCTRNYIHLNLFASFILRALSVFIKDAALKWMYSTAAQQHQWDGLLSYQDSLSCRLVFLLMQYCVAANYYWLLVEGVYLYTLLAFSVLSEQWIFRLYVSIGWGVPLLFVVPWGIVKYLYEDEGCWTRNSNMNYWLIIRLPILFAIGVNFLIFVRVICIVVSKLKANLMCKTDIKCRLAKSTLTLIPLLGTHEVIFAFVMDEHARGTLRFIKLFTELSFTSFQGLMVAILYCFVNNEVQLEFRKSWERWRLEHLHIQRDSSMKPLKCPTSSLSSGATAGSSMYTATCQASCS
T2 sequence (P47871 26-477): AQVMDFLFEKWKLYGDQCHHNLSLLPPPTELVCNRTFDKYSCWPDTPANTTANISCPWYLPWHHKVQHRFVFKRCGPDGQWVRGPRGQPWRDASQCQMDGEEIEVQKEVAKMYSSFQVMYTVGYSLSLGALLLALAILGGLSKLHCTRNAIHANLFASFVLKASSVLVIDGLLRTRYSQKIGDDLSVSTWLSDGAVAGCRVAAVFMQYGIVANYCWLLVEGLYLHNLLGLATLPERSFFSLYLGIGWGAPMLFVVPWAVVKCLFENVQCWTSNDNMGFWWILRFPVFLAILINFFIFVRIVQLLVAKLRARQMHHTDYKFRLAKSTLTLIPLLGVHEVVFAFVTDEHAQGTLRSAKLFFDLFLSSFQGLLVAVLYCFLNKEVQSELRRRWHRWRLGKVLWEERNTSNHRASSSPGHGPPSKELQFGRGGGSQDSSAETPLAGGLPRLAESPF
Method for human GLP-1 receptor: (§1) A further series of cellular assays was carried out with standard cellular assays (DiscoveRx, LeadHunter assays) using readout of cAMP stimulation or arrestin activation. Compounds were weighed precisely in an amount of about 1 mg and shipped to DiscoveRx for dilution and assay.
Method for human glucagon receptor: as §1

By pEC50 is commonly meant −log10 of the EC50, conventionally taken in molar units. Turning to `CCCCCCCCCCCCO[C@@H]1O[C@H](CO[C@H]2O[C@H](C(=O)NCCCC[C@@H]3NC(=O)[C@@H](NC(=O)[C@H](CC(=O)O)NC(=O)[C@H](CC(C)C)NC(=O)[C@H](Cc4ccc(O)cc4)NC(=O)[C@H](CCCCN)NC(=O)[C@H](CO)NC(=O)[C@H](Cc4ccc(O)cc4)NC(=O)[C@H](CC(=O)O)NC(=O)[C@H](CO)NC(=O)[C@@H](NC(=O)[C@H](Cc4ccccc4)NC(=O)[C@@H](NC(=O)CNC(=O)[C@H](CCC(N)=O)NC(=O)C(C)(C)NC(=O)[C@@H](N)Cc4c[nH]cn4)[C@@H](C)O)[C@@H](C)O)CCC(=O)NCCCC[C@@H](C(=O)N[C@@H](CCC(=O)O)C(=O)N[C@@H](Cc4ccccc4)C(=O)N[C@H](C(=O)N[C@@H](CCC(N)=O)C(=O)N[C@@H](Cc4c[nH]c5ccccc45)C(=O)N[C@@H](CC(C)C)C(=O)N[C@@H](CC(C)C)C(=O)N[C@@H](CCC(N)=O)C(=O)N[C@H](C(N)=O)[C@@H](C)O)[C@@H](C)CC)NC(=O)[C@H](C)NC(=O)[C@H](C)NC3=O)[C@H](O)[C@H](O)[C@H]2O)[C@@H](O)[C@H](O)[C@H]1O` [EU-A1586], the pEC50 on human GLP-1 receptor is 10.54; at human glucagon receptor it was 9.97.
For `CCCCCCCCCCCCO[C@@H]1O[C@H](CO[C@H]2O[C@H](C(=O)NCCCC[C@@H]3NC(=O)[C@@H](NC(=O)[C@H](CC(=O)O)NC(=O)[C@H](CC(C)C)NC(=O)[C@H](Cc4ccc(O)cc4)NC(=O)[C@H](CCCCN)NC(=O)[C@H](CO)NC(=O)[C@H](Cc4ccc(O)cc4)NC(=O)[C@H](CC(=O)O)NC(=O)[C@H](CO)NC(=O)[C@@H](NC(=O)[C@H](Cc4ccccc4)NC(=O)[C@@H](NC(=O)CNC(=O)[C@H](CCC(N)=O)NC(=O)C(C)(C)NC(=O)[C@@H](N)Cc4c[nH]cn4)[C@@H](C)O)[C@@H](C)O)CCC(=O)NCCCC[C@@H](C(=O)N[C@@H](CCC(=O)O)C(=O)N[C@@H](Cc4ccccc4)C(=O)N[C@H](C(=O)N[C@@H](CCC(N)=O)C(=O)N[C@@H](Cc4c[nH]c5ccccc45)C(=O)N[C@@H](CC(C)C)C(=O)N[C@@H](CC(C)C)C(=O)N[C@@H](CCC(N)=O)C(=O)N[C@H](C(=O)O)[C@@H](C)O)[C@@H](C)CC)NC(=O)[C@H](C)NC(=O)[C@H](C)NC3=O)[C@H](O)[C@H](O)[C@H]2O)[C@@H](O)[C@H](O)[C@H]1O` [EU-A1590] the same measures were 10.03 and 9.46.
Taken in the same sequence, the figures for `CCCCCCCCCCCCO[C@@H]1O[C@H](CO[C@H]2O[C@H](C(=O)NCCCC[C@@H]3NC(=O)[C@@H](NC(=O)[C@H](CC(=O)O)NC(=O)[C@H](CC(C)C)NC(=O)[C@H](Cc4ccc(O)cc4)NC(=O)[C@H](CCCCN)NC(=O)[C@H](CO)NC(=O)[C@H](Cc4ccc(O)cc4)NC(=O)[C@H](CC(=O)O)NC(=O)[C@H](CO)NC(=O)[C@@H](NC(=O)[C@H](Cc4ccccc4)NC(=O)[C@@H](NC(=O)CNC(=O)[C@H](CCC(N)=O)NC(=O)C(C)(C)NC(=O)[C@@H](N)Cc4c[nH]cn4)[C@@H](C)O)[C@@H](C)O)CCC(=O)NCCCC[C@@H](C(=O)N[C@@H](CCC(=O)O)C(=O)N[C@@H](Cc4ccccc4)C(=O)N[C@H](C(=O)N[C@@H](CCC(=O)O)C(=O)N[C@@H](Cc4c[nH]c5ccccc45)C(=O)N[C@@H](CC(C)C)C(=O)N[C@@H](CC(C)C)C(=O)N[C@@H](CCC(N)=O)C(=O)N[C@H](C(N)=O)[C@@H](C)O)[C@@H](C)CC)NC(=O)[C@H](C)NC(=O)[C@H](C)NC3=O)[C@H](O)[C@H](O)[C@H]2O)[C@@H](O)[C@H](O)[C@H]1O` [EU-A1591] (H-H[Aib]QGTFTSDYSKYLDEK(Melibiouronoyl(1β-O-dodecyl))AAKEFIEWLLQT-NH2; lactam 16-20; N-terminus assumed) were 10.14 and 9.54.
For `CCCCCCCCCCCCO[C@@H]1O[C@H](CO[C@H]2O[C@H](C(=O)NCCCC[C@@H]3NC(=O)[C@@H](NC(=O)[C@H](CC(=O)O)NC(=O)[C@H](CC(C)C)NC(=O)[C@H](Cc4ccc(O)cc4)NC(=O)[C@H](CCCCN)NC(=O)[C@H](CO)NC(=O)[C@H](Cc4ccc(O)cc4)NC(=O)[C@H](CC(=O)O)NC(=O)[C@H](CO)NC(=O)[C@@H](NC(=O)[C@H](Cc4ccccc4)NC(=O)[C@@H](NC(=O)CNC(=O)[C@H](CCC(N)=O)NC(=O)C(C)(C)NC(=O)[C@@H](N)Cc4c[nH]cn4)[C@@H](C)O)[C@@H](C)O)CCC(=O)NCCCC[C@@H](C(=O)N[C@@H](CCC(=O)O)C(=O)N[C@@H](Cc4ccccc4)C(=O)N[C@H](C(=O)N[C@@H](CCC(=O)O)C(=O)N[C@@H](Cc4c[nH]c5ccccc45)C(=O)N[C@@H](CC(C)C)C(=O)N[C@@H](CC(C)C)C(=O)N[C@@H](CCC(N)=O)C(=O)N[C@H](C(=O)O)[C@@H](C)O)[C@@H](C)CC)NC(=O)[C@H](C)NC(=O)[C@H](C)NC3=O)[C@H](O)[C@H](O)[C@H]2O)[C@@H](O)[C@H](O)[C@H]1O` [EU-A1592] (H-H[Aib]QGTFTSDYSKYLDEK(Melibiouronoyl(1β-O-dodecyl))AAKEFIEWLLQT-OH; lactam 16-20; N-terminus assumed) the same measures were 9.60 and 9.11.
With `CCCCCCCCCCCCO[C@@H]1O[C@H](CO[C@H]2O[C@H](C(=O)NCCCC[C@H](NC(=O)[C@H](CC(=O)O)NC(=O)[C@H](CO)NC(=O)[C@@H](NC(=O)[C@H](Cc3ccccc3)NC(=O)[C@@H](NC(=O)CNC(=O)[C@H](CCC(N)=O)NC(=O)C(C)(C)NC(=O)[C@@H](N)Cc3c[nH]cn3)[C@@H](C)O)[C@@H](C)O)C(=O)N[C@@H](CO)C(=O)N[C@@H](CCCCN)C(=O)N[C@@H](Cc3ccc(O)cc3)C(=O)N[C@@H](CC(C)C)C(=O)N[C@@H](CC(=O)O)C(=O)N[C@H]3CCC(=O)NCCCC[C@@H](C(=O)N[C@@H](CCC(=O)O)C(=O)N[C@@H](Cc4ccccc4)C(=O)N[C@H](C(=O)N[C@@H](CCC(N)=O)C(=O)N[C@@H](Cc4c[nH]c5ccccc45)C(=O)N[C@@H](CC(C)C)C(=O)N[C@@H](CC(C)C)C(=O)N[C@@H](CCC(N)=O)C(=O)N[C@H](C(N)=O)[C@@H](C)O)[C@@H](C)CC)NC(=O)[C@H](C)NC(=O)[C@H](C)NC(=O)[C@H](CCC(N)=O)NC3=O)[C@H](O)[C@H](O)[C@H]2O)[C@@H](O)[C@H](O)[C@H]1O` [EU-A1594] (H-H[Aib]QGTFTSDK(Melibiouronoyl(1β-O-dodecyl))SKYLDEQAAKEFIQWLLQT-NH2; lactam 16-20), the pEC50 on human GLP-1 receptor was 10.96; at human glucagon receptor, 10.17.
As to `CCCCCCCCCCCCCCO[C@@H]1O[C@H](CO[C@H]2O[C@H](C(=O)NCCCC[C@H](NC(=O)[C@H](CC(=O)O)NC(=O)[C@H](CO)NC(=O)[C@@H](NC(=O)[C@H](Cc3ccccc3)NC(=O)[C@@H](NC(=O)CNC(=O)[C@H](CCC(N)=O)NC(=O)C(C)(C)NC(=O)[C@@H](N)Cc3c[nH]cn3)[C@@H](C)O)[C@@H](C)O)C(=O)N[C@@H](CO)C(=O)N[C@@H](CCCCN)C(=O)N[C@@H](Cc3ccc(O)cc3)C(=O)N[C@@H](CC(C)C)C(=O)N[C@@H](CC(=O)O)C(=O)N[C@H]3CCC(=O)NCCCC[C@@H](C(=O)N[C@@H](CCC(=O)O)C(=O)N[C@@H](Cc4ccccc4)C(=O)N[C@H](C(=O)N[C@@H](CCC(N)=O)C(=O)N[C@@H](Cc4c[nH]c5ccccc45)C(=O)N[C@@H](CC(C)C)C(=O)N[C@@H](CC(C)C)C(=O)N[C@@H](CCC(N)=O)C(=O)N[C@H](C(N)=O)[C@@H](C)O)[C@@H](C)CC)NC(=O)[C@H](C)NC(=O)[C@H](C)NC(=O)[C@H](CCC(N)=O)NC3=O)[C@H](O)[C@H](O)[C@H]2O)[C@@H](O)[C@H](O)[C@H]1O` [EU-A1595] (H-H[Aib]QGTFTSDK(X2)SKYLDEQAAKEFIQWLLQT-NH2; lactam 16-20; N-terminus assumed), the negative-log EC50 (pEC50) at human GLP-1 receptor was 10.68; at human glucagon receptor, 9.95.
